Laboratory results published in patent US7015306B2 (BioSynthema, Inc., priority 1999, dated 2006).
*1 amine or outer side, *2 acyl side, *3 side chain or, on linkers, in order; H or OH if unused. Where a SMILES comes first, the peptide text is derived from it. [ ]: non-standard residue; d: D form. The star is where a group is joined. ξ: configuration not given here. Abu(1-amidino-4-piperidyl) = N=C(N)N1CCC(CC[C@H](N)C(=O)O)CC1; Ala(piperidin-4-yl) = O=C([C@H](CC1CCN([*:3])CC1)N[*:1])[*:2]; Gly(1-amidinopiperidin-4-yl) = N=C(N)N1CCC([C@H](N)C(=O)O)CC1; Ala(1-amidino-4-piperidyl) = N=C(N)N1CCC(C[C@H](N)C(=O)O)CC1; DTPA = O=C(O)CN(CCN(CC(=O)O)CC(=O)O)CCN(CC(=O)O)CC(=O)*; Phe(4-guanidino) = N=C(N)Nc1ccc(C[C@H](N)C(=O)O)cc1; ξGly(4-Pip(1-amidino)) = N=C(N)N1CCC(C(N)C(=O)O)CC1; X2 = NC[C@H]1CC[C@H](C[C@H](N[*:1])C(=O)[*:2])CC1; X1 = CC(C)C[C@@H](CN[C@@H](CC(C)C)C(N)=O)N*; X3 = CC[C@H](C)[C@@H](COC(=O)[*:2])N[*:1]; Chg = N[C@H](C(=O)O)C1CCCCC1; Tle = CC(C)(C)[C@H](N)C(=O)O; NHOH = ON*

Assays:
[1] = In vitro serum stability assay (HPLC) of In-111 labeled peptide; assay type: in vitro ADME, human; conditions: for remaining at 4 h: t = 4 h
Description: (§1) All reagents were purchased from Sigma unless otherwise noted. The peptide and ^111InCl3 in 0.05 N HCl were incubated in a sodium acetate/ascorbic acid buffer for 30 minutes at room temperature. The reaction was diluted with 5% ethanol/95% PBS before using in subsequent in vitro assays.
(§2) Human serum was purchased from Sigma (H 1388). The labeled peptide was incubated in either human serum or rat urine at 37EC for the specified amount of time. An aliquot was filtered through a 0.45 μm syringe filter prior to HPLC injection.

[2] = In vitro urine stability assay (HPLC) of In-111 labeled peptide; assay type: in vitro ADME; conditions: for remaining at 4 h: rat, t = 4 h
Description: as §1, §2

[3] = human serum, 37EC, read-out: HPLC Evaluation of Serum Stability at 37EC, Serum, t = 4 h
[4] = 37EC, read-out: HPLC Evaluation of Urine Stability at 37EC, Urine, t = 4 h

Compound	% of peptide at 4 hours after incubation at 37EC, Serum ([1]; human serum, 37EC, 4 hours) [%]	% of peptide at 4 hours after incubation at 37EC, Urine ([2]; rat urine, 37EC, 4 hours) [%]	also measured
CC[C@H](C)[C@H](NC(=O)[C@H](Cc1ccc(O)cc1)NC(=O)[C@@H]1CCCN1C(=O)[C@H](CCCNC(=N)N)NC(=O)C(CCc1ccnc(N)n1)NC(=O)[C@@H]1CCCN1C(=O)[C@@H](CCCCN)NC(=O)CN(CCN(CCN(CC(=O)O)CC(=O)O)CC(=O)O)CC(=O)O)C(=O)N[C@@H](CC(C)C)C(=O)O (single isomer, unassigned) [In-111-DTPA-DK-P-Aba(Apy)-R-P-Y-J-L, metal not drawn]			remaining at 4 h [1, 3]: 4.3%; HPLC Evaluation of Serum Stability at 37EC, Serum, t = 0 ([1]; human serum): 96.9%; HPLC Evaluation of Urine Stability at 37EC, Urine, t = 0 ([2]; rat urine): 95.6%; remaining at 4 h [2, 4]: 6%
CC[C@H](C)[C@H](NC(=O)[C@H](Cc1ccc(O)cc1)NC(=O)[C@@H]1CCCN1C(=O)[C@H](CCCNC(=N)N)NC(=O)C(NC(=O)[C@@H]1CCCN1C(=O)[C@@H](CCCCN)NC(=O)CN(CCN(CCN(CC(=O)O)CC(=O)O)CC(=O)O)CC(=O)O)C1CCN(C(=N)N)CC1)C(=O)N[C@@H](CC(C)C)C(=O)O (single isomer, unassigned) [In-111-DTPA-DK-P-G(PipAm)-R-P-Y-I-L, metal not drawn]			remaining at 4 h [1, 3]: 19.5%; remaining at 4 h [2, 4]: 16.6%
CC(C)C[C@H](NC(=O)[C@@H](NC(=O)[C@H](Cc1ccc(O)cc1)NC(=O)[C@@H]1CCCN1C(=O)[C@H](CCCNC(=N)N)NC(=O)C(NC(=O)[C@@H]1CCCN1C(=O)[C@@H](CCCCN)NC(=O)CN(CCN(CCN(CC(=O)O)CC(=O)O)CC(=O)O)CC(=O)O)C1CCN(C(=N)N)CC1)C(C)(C)C)C(=O)O (single isomer, unassigned) [In-111-DTPA-DK-P-G(PipAm)-R-P-Y-tBuG-L, metal not drawn]			remaining at 4 h ([1]; Table 4, human serum, read-out: Serum Stability, Serum (t = 4 h)): 87.5%; remaining at 4 h ([2]; Table 4, rat urine, read-out: Urine Stability, Urine (t = 4 h)): 63%
CC[C@H](C)[C@H](NC(=O)[C@H](Cc1ccc(O)cc1)NC(=O)[C@@H]1CCCN1C(=O)C(CCc1ccnc(N)n1)NC(=O)[C@H](CCCNC(=N)N)NC(=O)[C@@H]1CCCN1C(=O)[C@@H](CCCCN)NC(=O)CN(CCN(CCN(CC(=O)O)CC(=O)O)CC(=O)O)CC(=O)O)C(=O)N[C@@H](CC(C)C)C(=O)O (single isomer, unassigned) [In-111-DTPA-DK-P-R-Aba(Apy)-P-Y-I-L, metal not drawn]			remaining at 4 h [1, 3]: 15.7%; HPLC Evaluation of Serum Stability at 37EC, Serum, t = 0 ([1]; human serum): 98.1%; HPLC Evaluation of Urine Stability at 37EC, Urine, t = 0 ([2]; rat urine): 96.7%; remaining at 4 h [2, 4]: 4.7%
CC[C@H](C)[C@H](NC(=O)[C@H](Cc1ccc(O)cc1)NC(=O)[C@@H]1CCCN1C(=O)C(Cc1ccc(NC(=N)N)cc1)NC(=O)[C@H](CCCNC(=N)N)NC(=O)[C@@H]1CCCN1C(=O)[C@@H](CCCCN)NC(=O)CN(CCN(CCN(CC(=O)O)CC(=O)O)CC(=O)O)CC(=O)O)C(=O)N[C@@H](CC(C)C)C(=O)O (single isomer, unassigned) [In-111-DTPA-DK-P-R-F(Gu)-P-Y-I-L, metal not drawn]			remaining at 4 h [1, 3]: 16.3%; HPLC Evaluation of Serum Stability at 37EC, Serum, t = 0 ([1]; human serum): 94%; HPLC Evaluation of Urine Stability at 37EC, Urine, t = 0 ([2]; rat urine): 90.4%; remaining at 4 h [2, 4]: 0%
CC(C)C[C@H](NC(=O)[C@@H](NC(=O)[C@H](Cc1ccc(O)cc1)NC(=O)[C@@H]1CCCN1C(=O)[C@H](CCCNC(=N)N)NC(=O)[C@@H](NC(=O)[C@@H]1CCCN1C(=O)[C@H](C[C@H]1CC[C@H](CN)CC1)NC(=O)CN(CCN(CCN(CC(=O)O)CC(=O)O)CC(=O)O)CC(=O)O)C1CCN(C(=N)N)CC1)C(C)(C)C)C(=O)O [Compound XII, DTPA-trans-Cha(4-CH2NH2)-Pro-Gly(PipAm)-Arg-Pro-Tyr-tBuGly-Leu-OH] ({DTPA}-[X2]P[Gly(1-amidinopiperidin-4-yl)]RPY[Tle]L-OH)	94.8	89.4	
CC(C)C[C@H](NC(=O)[C@@H](NC(=O)[C@H](Cc1ccc(O)cc1)NC(=O)[C@@H]1CCCN1C(=O)[C@H](CCCNC(=N)N)NC(=O)[C@@H](NC(=O)[C@@H]1CCCN1C(=O)[C@H](CC1CCNCC1)NC(=O)CN(CCN(CCN(CC(=O)O)CC(=O)O)CC(=O)O)CC(=O)O)C1CCN(C(=N)N)CC1)C(C)(C)C)C(=O)O [DTPA-(Pip)Ala-Pro-Gly(PipAm)-Arg-Pro-Tyr-tBuGly-Leu-OH] ({DTPA}-[Ala(piperidin-4-yl)]P[Gly(1-amidinopiperidin-4-yl)]RPY[Tle]L-OH)	98.9	98.3	
CC[C@H](C)[C@H](NC(=O)[C@H](Cc1ccc(O)cc1)NC(=O)[C@@H]1CCCN1C(=O)[C@H](CCCNC(=N)N)NC(=O)[C@H](CCCNC(=N)N)NC(=O)CN(CCN(CCN(CC(=O)O)CC(=O)O)CC(=O)O)CC(=O)O)C(=O)N[C@@H](CC(C)C)C(=O)O [DTPA-Arg-Arg-Pro-Tyr-Ile-Leu-OH, reference compound]	1.6	13.0	% of compound present at 4 hours in serum ([1]; human serum, 37EC, 4 hours): 1.6%; % of compound present at 4 hours in urine ([2]; rat urine, 37EC, 4 hours): 13.0%
CC(C)C[C@@H](CN[C@@H](CC(C)C)C(N)=O)NC(=O)[C@H](Cc1ccc(O)cc1)NC(=O)[C@@H]1CCCN1C(=O)[C@H](CCCNC(=N)N)NC(=O)[C@H](Cc1ccc(NC(=N)N)cc1)NC(=O)[C@@H]1CCCN1C(=O)[C@@H](CCCCN)NC(=O)CN(CCN(CCN(CC(=O)O)CC(=O)O)CC(=O)O)CC(=O)O [DTPA-DLys-Pro-(4-Gu)Phe-Arg-Pro-Tyr-Leu-(Ψ-CH2-NH)-Leu-OH] ({DTPA}-[dK]P[Phe(4-guanidino)]RPY-X1; C-terminus assumed)	76.2	95.7	
CC(C)C[C@H](NC(=O)[C@@H](NC(=O)[C@H](Cc1ccc(O)cc1)NC(=O)[C@@H]1CCCN1C(=O)[C@H](CCCNC(=N)N)NC(=O)[C@H](CC1CCN(C(=N)N)CC1)NC(=O)[C@@H]1CCCN1C(=O)[C@@H](CCCCN)NC(=O)CN(CCN(CCN(CC(=O)O)CC(=O)O)CC(=O)O)CC(=O)O)C(C)(C)C)C(=O)O [DTPA-DLys-Pro-Ala(PipAm)-Arg-Pro-Tyr-tBuGly-Leu-OH] ({DTPA}-[dK]P[Ala(1-amidino-4-piperidyl)]RPY[Tle]L-OH)	96.5	89.8	
CC(C)C[C@H](NC(=O)[C@@H](NC(=O)[C@@H](Cc1ccc(O)cc1)NC(=O)[C@@H]1CCCN1C(=O)[C@H](CCCNC(=N)N)NC(=O)C(NC(=O)[C@@H]1CCCN1C(=O)[C@@H](CCCCN)NC(=O)CN(CCN(CCN(CC(=O)O)CC(=O)O)CC(=O)O)CC(=O)O)C1CCN(C(=N)N)CC1)C(C)(C)C)C(=O)O (stereo partly drawn) [DTPA-DLys-Pro-Gly(PipAm)-Arg-Pro-DTyr-tBuGly-Leu-OH]	98.9	98.3	
CC(C)C[C@H](NC(=O)[C@@H](NC(=O)[C@H](Cc1ccc(O)cc1)NC(=O)[C@@H]1CCCN1C(=O)[C@H](CCCNC(=N)N)NC(=O)C(NC(=O)[C@@H]1CCCN1C(=O)[C@@H](CCCCN)NC(=O)CN(CCN(CCN(CC(=O)O)CC(=O)O)CC(=O)O)CC(=O)O)C1CCN(C(=N)N)CC1)C1CCCCC1)C(=O)O (stereo partly drawn) [DTPA-DLys-Pro-Gly(PipAm)-Arg-Pro-Tyr-Chg-Leu-OH] ({DTPA}-[dK]P[ξGly(4-Pip(1-amidino))]RPY[Chg]L-OH)	75.2	7.0	
CC[C@H](C)[C@@H](COC(=O)N[C@@H](CC(C)C)C(=O)O)NC(=O)[C@H](Cc1ccc(O)cc1)NC(=O)[C@@H]1CCCN1C(=O)[C@H](CCCNC(=N)N)NC(=O)[C@@H](NC(=O)[C@@H]1CCCN1C(=O)[C@@H](CCCCN)NC(=O)CN(CCN(CCN(CC(=O)O)CC(=O)O)CC(=O)O)CC(=O)O)C1CCN(C(=N)N)CC1 [DTPA-DLys-Pro-Gly(PipAm)-Arg-Pro-Tyr-Ile^R-OCO-Leu-OH] ({DTPA}-[dK]P[Gly(1-amidinopiperidin-4-yl)]RPY[X3]L-OH)	94.6	89.8	
CC(C)C[C@H](NC(=O)[C@@H](NC(=O)[C@H](Cc1ccc(O)cc1)NC(=O)[C@@H]1CCCN1C(=O)[C@H](CCCNC(=N)N)NC(=O)C(NC(=O)[C@@H]1CCCN1C(=O)[C@@H](CCCCN)NC(=O)CN(CCN(CCN(CC(=O)O)CC(=O)O)CC(=O)O)CC(=O)O)C1CCN(C(=N)N)CC1)C(C)(C)C)C(=O)NO (stereo partly drawn) [DTPA-DLys-Pro-Gly(PipAm)-Arg-Pro-Tyr-tBuGly-Leu-HA] ({DTPA}-[dK]P[ξGly(4-Pip(1-amidino))]RPY[Tle]L-{NHOH})	89.2	60.2	
CC(C)C[C@H](NC(=O)[C@@H](NC(=O)[C@H](Cc1ccc(O)cc1)NC(=O)[C@@H]1CCCN1C(=O)[C@H](CCCNC(=N)N)NC(=O)[C@H](CCC1CCN(C(=N)N)CC1)NC(=O)[C@@H]1CCCN1C(=O)[C@@H](CCCCN)NC(=O)CN(CCN(CCN(CC(=O)O)CC(=O)O)CC(=O)O)CC(=O)O)C(C)(C)C)C(=O)O [DTPA-DLys-Pro-homoAla(PipAm)-Arg-Pro-Tyr-tBuGly-Leu-OH] ({DTPA}-[dK]P[Abu(1-amidino-4-piperidyl)]RPY[Tle]L-OH)	84.3	71.3	
